Target: Substance-P receptor (Homo sapiens, UniProt P25103)
Assay: Receptor Binding Assay: The buffer solution for the receptor binding test was dispensed to the wells of a 96-well assay plate (Greiner) at 22.5 μL/well. DMSO solutions of a test compound, which were prepared at an 80-time higher concentration using 100% dimethyl sulfoxide (DMSO), were added to the wells at 2.5 μL/well (final concentrations of 1 nM to 100 nM), and the solutions were mixed. As a radiolabeled ligand, 125I-substance P (Substance P, [125I]Tyr8-, PerkinElmer) was used. 125I-substance P was diluted with the buffer solution for the receptor binding test to a concentration resulting in 125 pmol/25 μL/well and added to the 96-well assay plate, and the solutions were mixed. The membrane fraction prepared from the human NK1 receptor-expressing cells was diluted with the buffer solution for the receptor binding test to a concentration resulting in 8 to 10 μg/well, suspended until the suspension became in such a homogenous state that the suspension could flow through a 27 G injection needle smoothly and then added to the 96-well assay plate at 150 μL/well. Then, the plate was incubated at room temperature for 60 minutes while shaking the plate. […]

Sequence of Substance-P receptor (P25103 whole entry): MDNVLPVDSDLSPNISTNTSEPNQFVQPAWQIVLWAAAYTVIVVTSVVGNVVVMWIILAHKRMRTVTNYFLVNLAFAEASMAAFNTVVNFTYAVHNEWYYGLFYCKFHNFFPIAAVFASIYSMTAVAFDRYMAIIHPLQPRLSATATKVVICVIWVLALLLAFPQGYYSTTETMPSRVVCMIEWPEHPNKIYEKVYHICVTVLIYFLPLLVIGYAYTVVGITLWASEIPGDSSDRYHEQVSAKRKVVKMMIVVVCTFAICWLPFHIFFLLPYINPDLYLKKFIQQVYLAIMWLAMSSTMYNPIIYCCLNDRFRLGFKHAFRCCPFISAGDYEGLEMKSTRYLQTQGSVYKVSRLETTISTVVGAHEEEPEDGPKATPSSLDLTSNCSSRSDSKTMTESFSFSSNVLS

IC50: 5.51 nM
SMILES: Cc1cc(F)ccc1-c1cc(C2CCC(CC(=O)O)CC2)nc(Cl)c1N(C)C(=O)C(C)(C)c1cc(C(F)(F)F)cc(C(F)(F)F)c1 (stereo unspecified)
